US7579378B2, “Sulfonamido compounds that antagonize the vanilloid TRPV1 receptor” (Pharmeste S.R.L., priority 2004, dated 2009)

Experiments:
[1] = biological target: T1, TRPV1 expressing rat trigeminal neurons (Rattus norvegicus, UniProt O35433); assay: Ca2+ fluorescence measurements in cultured rat trigeminal ganglia neurons (capsaicin-induced calcium mobilisation); type: cell-based; conditions: for IC50: against capsaicin (0.1 μM)-induced calcium mobilisation, 10 minutes incubation prior to capsaicin, mean and 95% fiducial limits
T1 construct: The ganglia were then dissociated into single cells; endogenous in cells; host or cells: primary cultured trigeminal ganglia neurons from newborn rats
T1 sequence (O35433 whole entry): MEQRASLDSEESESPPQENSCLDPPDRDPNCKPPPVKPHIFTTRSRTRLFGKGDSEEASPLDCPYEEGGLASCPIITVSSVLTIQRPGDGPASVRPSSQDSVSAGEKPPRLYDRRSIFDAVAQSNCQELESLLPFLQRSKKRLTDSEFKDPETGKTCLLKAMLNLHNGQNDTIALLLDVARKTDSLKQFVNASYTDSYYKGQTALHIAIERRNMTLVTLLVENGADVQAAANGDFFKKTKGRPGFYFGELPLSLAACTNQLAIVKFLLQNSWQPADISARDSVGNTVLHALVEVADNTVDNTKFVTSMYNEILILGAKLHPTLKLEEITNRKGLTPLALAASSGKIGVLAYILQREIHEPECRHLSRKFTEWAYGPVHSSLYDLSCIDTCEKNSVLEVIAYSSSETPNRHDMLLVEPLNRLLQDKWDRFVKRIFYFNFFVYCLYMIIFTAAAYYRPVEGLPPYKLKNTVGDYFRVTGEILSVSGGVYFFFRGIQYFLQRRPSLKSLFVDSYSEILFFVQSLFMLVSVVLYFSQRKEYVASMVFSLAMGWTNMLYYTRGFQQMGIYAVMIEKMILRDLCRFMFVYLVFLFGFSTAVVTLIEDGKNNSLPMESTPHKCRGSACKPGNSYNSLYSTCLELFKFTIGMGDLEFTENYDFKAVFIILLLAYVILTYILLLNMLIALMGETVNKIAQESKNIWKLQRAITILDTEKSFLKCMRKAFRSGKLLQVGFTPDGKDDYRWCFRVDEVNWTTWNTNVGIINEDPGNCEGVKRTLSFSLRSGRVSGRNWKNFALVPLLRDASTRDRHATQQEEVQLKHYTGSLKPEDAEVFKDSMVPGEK
Protocol: Newborn rats (2 days old) were terminally anaesthetized and decapitated. The trigeminal ganglia were removed and rapidly placed in cold phosphate buffered solution (PBS) before being transferred to collagenase/dispase (1 mg/ml dissolved in Ca^2+—Mg^2+-free PBS) for 35 min at 37° C. (Rigoni et al, 2003). After the enzymatic treatment ganglia were rinsed three times with Ca^2+—Mg^2+-free PBS and then placed in 2 ml of cold DMEM supplemented with 10% foetal bovine serum (FBS, heat inactivated), 2 mM L-glutamine, 100 u/ml penicillin and […] streptomycin. The ganglia were then dissociated into single cells by several passages through a series of syringe needles (23 G down to 25 G). Finally, the complex of medium and ganglia cells were sieved through a […] filter to remove debris and topped up with 8 ml of DMEM medium and centrifuged (200×g for 5 min). The final cell pellet was re-suspended in DMEM medium (supplemented with 100 ng/ml mouse Nerve Growth Factor (mouse-NGF-7S) and cytosine-b-D-arabino-furanoside free base (ARA-C) 2.5 mM). Cells were plated on poly-L-lysine (8.3 mM) and laminin (5 mM) coated 25 mm glass cover slips and kept for 2 to 5 days at 37° C. in a humidified incubator gassed with 5% CO2 and air. Plated neurons were loaded with Fura-2-AM-ester (3 μM) in Ca^2+ buffer solution of the following composition (mM): CaCl2 1.4, KCl 5.4, MgSO4 0.4, NaCl 135, D-glucose 5, HEPES 10 with BSA 0.1%, at pH 7.4, for 40 min at 37° C., washed twice with the Ca^2+ buffer solution and transferred to a chamber on the stage of Nikon eclipse TE300 microscope. The dye was excited at 340 and 380 nm to indicate relative [Ca^2+]i changes by the F340/F380 ratio recorded with a dynamic image analysis system (Laboratory Automation 2.0, RCS, Florence, Italy). Capsaicin (0.1 μM) and ionomycin (5 μM) were added to the chamber. A calibration curve using a buffer containing Fura-2-AM-ester and determinant concentrations of free Ca^2+ (Kudo et al., 1986) was used to convert the data obtained from F340/F380 ratio to [Ca^2+]i (nM).
The effects of all compounds were tested against capsaicin-induced calcium mobilisation. Antagonistic compounds were incubated for 10 minutes prior to the capsaicin challenge. The inhibitory effect of the TRPV1 antagonist, capsazepine, was also tested.

[2] = biological target: T2, TRPV1 receptor expressed in rat spinal cord (Rattus norvegicus, UniProt O35433); assay: [3H]-RTX competition binding assay; conditions: for Ki: [3H]-RTX (0.4 nM) competition, rat spinal cord membranes, mean and 95% fiducial limits; for affinity for the TRPV1 receptor: in vitro, summary statement
T2 construct: spinal cord was removed and disrupted using a Polytron tissue homogenizer; from tissue; host or cells: rat spinal cord membranes (Sprague-Dawley)
T2 sequence (O35433 whole entry): as above
Protocol: Male Sprague-Dawley rats with body weight between 250 to 350 g at the time for testing were used. For binding assays rats were sacrificed by decapitation under anesthesia and spinal cord was removed and disrupted using a Polytron tissue homogenizer in ice cold buffer containing 5 mM KCl, 5.8 mM NaCl, 0.75 mM CaCl2, 2 mM MgCl2, 320 mM sucrose, 10 mM Hepes, pH 8.6 (Szallasi and Blunberg, 1992; 1993). Tissue homogenized was centrifuged at 1000×g for 10 min at 4° C. and the sumatant was centrifuged again at 35000×g for 30 min at 4° C. (Beckman Avanti J25). The pellet was resuspended in the same buffer as described above and used in binding experiments. In saturation experiments, 150 μg protein/sample from membrane suspensions were incubated with ([^3H]-Resiniferatoxin, Perkin Elmer, Boston, Mass.) [^3H]-RTX (0.003-3 nM) in the assay buffer containing 0.25 mg/ml fatty acid-free bovine serum albumin at 37° C. for 60 min. In competition experiments, the membranes were incubated at 37° C. for 60 min with [^3H]RTX (0.4 nM) and increasing concentrations of examined compounds in the range from 0.1 nM to 3 μM. Non specific binding was defined in the presence of 1 μM RTX. After incubation the reaction mixture was cooled at 0° C. and incubated with bovine α1-acid glycoprotein (200 μg per tube) for 15 min to reduce non-specific RTX binding. Membrane-bound RTX was separated from the free through the centrifugation of the samples at 18500×g for 15 min. The tip of the microcentrifuge tube containing the pellet was cut off and the radioactivity was determined by scintillation counting (Packard 2500 TR). The protein concentration was determined according to a Bio-Rad method with bovine serum albumin as a standard reference (Bradford, 1976). Saturation and competition studies were analyzed with the program Ligand (Munson and Rodbard, 1980).

[3] = tested on: capsaicin-induced wiping behaviour; assay: Wiping test in rats (capsaicin-induced wiping); type: in vivo, rat
Protocol: The irritant effect (induction of wiping movements) of capsaicin was assessed by applying capsaicin 3 μg/eye (10 μl) on the rat conjunctiva and the number of wiping movements was recorded during the 60 sec period that followed the application. In other set of experiments, rats were treated intraperitoneally with diverse doses of 14 and capsaicin-induced wiping was studied.

Structure (SMILES)	melting point [°C]	IC50 [1] [nM]	Ki [2] [nM]	affinity for the TRPV1 receptor [2]	further results
Oc1cc2c(cc1O)CN(C(=S)NCCc1ccc(Cl)cc1)CCC2 [Capsazepine, capsazepine, reference compound]	–	2170	–	–	–
COc1cc(CNS(=O)(=O)c2ccc(NC(=S)NCc3ccc(C(C)(C)C)cc3)cc2)c(Br)cc1O [Compound 20, N-(4-t-butyl-benzyl)-N′-[4-(2-bromo-4-hydroxy-5-methoxy-benzyl)aminosulfonyl]phenyl thiourea]	–	212	493	high affinity	–
COc1cc(CNC(=O)CCCC/C=C/C(C)C)ccc1O [Capsaicin, capsaicin, reference compound]	–	–	–	–	rat trigeminal neuronal cells showing an increase in [Ca2+]i ([1]; capsaicin 0.1 μM): 87%
COc1cc(CNS(=O)(=O)c2ccc(NC(=S)NCc3ccc(C(C)(C)C)cc3)cc2)c(I)cc1O [Compound 14, N-(4-t-butyl-benzyl)-N′-[4-(2-iodo-4-hydroxy-5-methoxy-benzyl)aminosulfonyl]phenyl thiourea]	–	60	90	significantly greater than that of the classic TRPV1 receptor antagonist, capsazepine	inhibition of capsaicin-induced wiping behaviour ([3]; 1 mg/kg intraperitoneal, 60 minutes prior to the capsaicin challenge (3 μg/eye)): 24%; effect on capsaicin-induced wiping behaviour ([3]; intraperitoneal, 60 minutes prior to the capsaicin challenge, diverse doses): dose dependent reduction

More lines, main results first:

melting point [°C]	Structure (SMILES)	IC50 [1] [nM]	Ki [2] [nM]	affinity for the TRPV1 receptor [2]	further results
186	COc1cc(CNS(=O)(=O)c2ccc(CCNC(=S)NCc3ccc(C(F)(F)F)cc3)cc2)c(I)cc1O [Compound 33, N-(4-trifluoromethyl-benzyl)-N′-[4-(2-iodo-4-hydroxy-5-methoxy-benzyl)aminosulfonyl-2-phenylethyl]thiourea]	–	–	–	–
122	COc1cc(CNS(=O)(=O)c2ccc(NC(=S)NCc3ccc(C(F)(F)F)cc3)cc2)c(Cl)cc1O [Compound 19, N-(4-trifluoromethyl-benzyl)-N′-[4-(2-chloro-4-hydroxy-5-methoxy-benzyl)aminosulfonyl]phenyl thiourea]	270	756	high affinity	–
195	COc1cc(CNS(=O)(=O)c2ccc(CCNC(=S)NCc3ccc(C(C)(C)C)cc3)cc2)c(I)cc1O [Compound 32, N-(4-t-butyl-benzyl)-N′-[4-(2-iodo-4-hydroxy-5-methoxy-benzyl)aminosulfonyl-2-phenylethyl]thiourea]	–	–	–	–
